In publication PMC3914206:

Assays:
Type in all cases: binding
panel of 442 kinases = target: T1, panel of 442 kinases (Homo sapiens, UniProt P30530); conditions: Compound Concentration 10 µM
T1 construct: purchased KINOMEscan
T1 sequence (P30530 26-894): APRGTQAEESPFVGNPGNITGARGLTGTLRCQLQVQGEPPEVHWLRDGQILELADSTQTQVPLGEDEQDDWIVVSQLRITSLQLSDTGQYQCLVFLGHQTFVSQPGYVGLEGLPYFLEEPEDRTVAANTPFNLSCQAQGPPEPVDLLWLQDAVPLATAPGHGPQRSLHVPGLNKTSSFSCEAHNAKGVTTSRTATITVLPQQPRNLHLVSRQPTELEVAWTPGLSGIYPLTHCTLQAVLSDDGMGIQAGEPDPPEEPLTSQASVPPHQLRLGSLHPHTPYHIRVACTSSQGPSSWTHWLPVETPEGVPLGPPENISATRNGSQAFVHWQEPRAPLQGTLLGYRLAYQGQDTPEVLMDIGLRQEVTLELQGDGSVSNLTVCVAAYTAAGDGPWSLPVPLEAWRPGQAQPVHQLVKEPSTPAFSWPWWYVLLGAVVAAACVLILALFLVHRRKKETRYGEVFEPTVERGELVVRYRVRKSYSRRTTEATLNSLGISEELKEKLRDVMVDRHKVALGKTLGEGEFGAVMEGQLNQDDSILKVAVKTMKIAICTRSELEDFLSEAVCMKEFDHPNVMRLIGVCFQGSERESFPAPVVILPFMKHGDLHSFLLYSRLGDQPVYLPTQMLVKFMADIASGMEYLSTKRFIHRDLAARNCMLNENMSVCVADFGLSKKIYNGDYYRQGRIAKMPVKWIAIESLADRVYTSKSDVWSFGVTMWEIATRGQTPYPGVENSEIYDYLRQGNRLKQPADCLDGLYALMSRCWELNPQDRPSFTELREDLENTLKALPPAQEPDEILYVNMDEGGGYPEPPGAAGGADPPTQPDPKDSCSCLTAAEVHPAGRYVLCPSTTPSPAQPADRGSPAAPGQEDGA
From the text: We assessed the selectivity of members of this scaffold using the KINOMEscan methodology across a near comprehensive panel of 442 kinases [[18,27]].

[1] = target: T2, selected panels of kinases in HeLa and PC3 cell lysates (Homo sapiens, UniProt P21127); assay: KiNativ chemical proteomics profiling in HeLa and PC3 cell lysates; conditions: 10 uM; PITSLRE; peptide DLk[…]; proteome PC3; labeling site Lys2
T2 construct: endogenous in cells; host or cells: HeLa and PC3 cell lysates
T2 sequence (P21127 whole entry): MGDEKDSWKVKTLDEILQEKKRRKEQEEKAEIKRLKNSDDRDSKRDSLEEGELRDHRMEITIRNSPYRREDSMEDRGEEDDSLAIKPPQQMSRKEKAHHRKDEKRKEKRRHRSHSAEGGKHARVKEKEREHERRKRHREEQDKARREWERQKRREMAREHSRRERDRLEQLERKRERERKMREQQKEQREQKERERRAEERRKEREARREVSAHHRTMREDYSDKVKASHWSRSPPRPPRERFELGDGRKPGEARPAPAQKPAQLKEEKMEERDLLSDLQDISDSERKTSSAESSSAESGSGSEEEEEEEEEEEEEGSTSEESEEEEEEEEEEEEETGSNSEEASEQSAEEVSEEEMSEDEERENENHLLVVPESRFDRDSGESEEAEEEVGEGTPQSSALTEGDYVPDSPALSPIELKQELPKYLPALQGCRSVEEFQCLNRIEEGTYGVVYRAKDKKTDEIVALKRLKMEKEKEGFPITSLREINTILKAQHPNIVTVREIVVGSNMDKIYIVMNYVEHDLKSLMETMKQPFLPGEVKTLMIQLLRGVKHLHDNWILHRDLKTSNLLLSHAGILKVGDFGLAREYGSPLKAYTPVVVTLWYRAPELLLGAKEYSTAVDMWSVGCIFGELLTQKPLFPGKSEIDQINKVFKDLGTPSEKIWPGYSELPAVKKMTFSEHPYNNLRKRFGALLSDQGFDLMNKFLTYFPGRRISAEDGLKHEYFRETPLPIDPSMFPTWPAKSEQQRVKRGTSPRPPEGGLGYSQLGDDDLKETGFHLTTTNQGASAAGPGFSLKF

[2] = target: T3, selected panels of kinases in HeLa and PC3 cell lysates (Homo sapiens, UniProt P52333); assay: as above; conditions: 10 uM; proteome HEL; peptide IADFGLAkLLPLDKDYYVVR; labeling site Activation Loop
T3 construct: endogenous in cells; host or cells: HeLa and PC3 cell lysates
T3 sequence (P52333 whole entry): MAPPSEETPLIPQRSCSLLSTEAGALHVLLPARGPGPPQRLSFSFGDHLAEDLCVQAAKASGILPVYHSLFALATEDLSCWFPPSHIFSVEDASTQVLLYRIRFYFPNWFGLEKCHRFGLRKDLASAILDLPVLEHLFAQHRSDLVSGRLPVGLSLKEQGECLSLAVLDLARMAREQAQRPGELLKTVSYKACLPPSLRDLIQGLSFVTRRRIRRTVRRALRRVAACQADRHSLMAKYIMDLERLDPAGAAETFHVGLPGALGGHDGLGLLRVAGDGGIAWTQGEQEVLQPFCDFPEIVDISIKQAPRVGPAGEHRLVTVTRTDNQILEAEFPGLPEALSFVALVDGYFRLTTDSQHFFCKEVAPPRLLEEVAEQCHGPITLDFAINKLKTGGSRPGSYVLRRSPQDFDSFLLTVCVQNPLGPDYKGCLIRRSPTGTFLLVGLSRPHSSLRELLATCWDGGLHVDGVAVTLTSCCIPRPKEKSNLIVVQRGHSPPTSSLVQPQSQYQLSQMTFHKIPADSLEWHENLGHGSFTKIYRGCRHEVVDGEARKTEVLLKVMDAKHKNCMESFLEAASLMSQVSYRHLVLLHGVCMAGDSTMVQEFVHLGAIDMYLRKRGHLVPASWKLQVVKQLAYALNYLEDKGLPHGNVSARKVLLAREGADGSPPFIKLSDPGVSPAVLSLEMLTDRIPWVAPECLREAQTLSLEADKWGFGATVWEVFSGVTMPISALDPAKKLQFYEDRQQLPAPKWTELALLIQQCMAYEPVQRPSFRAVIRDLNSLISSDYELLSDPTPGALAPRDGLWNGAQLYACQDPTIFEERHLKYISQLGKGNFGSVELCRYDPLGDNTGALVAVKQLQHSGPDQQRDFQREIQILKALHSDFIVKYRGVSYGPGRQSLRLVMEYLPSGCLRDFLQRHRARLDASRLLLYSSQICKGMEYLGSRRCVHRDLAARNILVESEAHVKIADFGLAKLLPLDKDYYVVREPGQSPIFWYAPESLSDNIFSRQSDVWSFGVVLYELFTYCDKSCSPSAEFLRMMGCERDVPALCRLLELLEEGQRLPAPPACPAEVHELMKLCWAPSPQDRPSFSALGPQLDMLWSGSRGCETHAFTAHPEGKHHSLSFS

[3] = target: T4, selected panels of kinases in HeLa and PC3 cell lysates (Homo sapiens, UniProt Q58A45); assay: as above; conditions: 10 uM; PAN3; peptide VMDPTkILITGK; proteome HEL
T4 construct: endogenous in cells; host or cells: HeLa and PC3 cell lysates
T4 sequence (Q58A45 whole entry): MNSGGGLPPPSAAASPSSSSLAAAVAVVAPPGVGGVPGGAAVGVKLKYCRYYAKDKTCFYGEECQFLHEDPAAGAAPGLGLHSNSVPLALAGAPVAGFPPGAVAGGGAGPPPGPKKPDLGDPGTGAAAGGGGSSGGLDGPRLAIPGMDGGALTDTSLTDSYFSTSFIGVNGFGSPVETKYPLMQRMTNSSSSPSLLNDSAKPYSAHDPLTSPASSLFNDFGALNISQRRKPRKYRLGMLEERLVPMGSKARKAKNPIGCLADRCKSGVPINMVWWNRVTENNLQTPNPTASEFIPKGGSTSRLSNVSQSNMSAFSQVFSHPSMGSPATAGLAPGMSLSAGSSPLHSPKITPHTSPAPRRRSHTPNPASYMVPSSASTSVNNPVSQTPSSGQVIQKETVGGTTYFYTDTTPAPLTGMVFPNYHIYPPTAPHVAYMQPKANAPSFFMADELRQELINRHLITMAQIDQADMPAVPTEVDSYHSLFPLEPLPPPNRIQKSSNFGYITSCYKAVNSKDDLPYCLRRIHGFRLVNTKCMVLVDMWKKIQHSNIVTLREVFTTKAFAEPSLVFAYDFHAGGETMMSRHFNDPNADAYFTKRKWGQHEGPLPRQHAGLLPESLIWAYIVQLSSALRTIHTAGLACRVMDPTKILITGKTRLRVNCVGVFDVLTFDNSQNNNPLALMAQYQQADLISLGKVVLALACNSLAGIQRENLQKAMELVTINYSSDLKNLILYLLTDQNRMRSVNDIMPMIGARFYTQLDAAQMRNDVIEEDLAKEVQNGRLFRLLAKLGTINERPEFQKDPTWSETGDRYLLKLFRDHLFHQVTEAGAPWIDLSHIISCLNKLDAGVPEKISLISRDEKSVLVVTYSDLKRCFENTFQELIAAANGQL

[4] = target: T5, selected panels of kinases in HeLa and PC3 cell lysates (Homo sapiens, UniProt Q9NZJ5); assay: as above; conditions: 10 uM, PEK, peptide DLk[…], labeling site Lys2
T5 construct: endogenous in cells; host or cells: HeLa and PC3 cell lysates
T5 sequence (Q9NZJ5 30-1116): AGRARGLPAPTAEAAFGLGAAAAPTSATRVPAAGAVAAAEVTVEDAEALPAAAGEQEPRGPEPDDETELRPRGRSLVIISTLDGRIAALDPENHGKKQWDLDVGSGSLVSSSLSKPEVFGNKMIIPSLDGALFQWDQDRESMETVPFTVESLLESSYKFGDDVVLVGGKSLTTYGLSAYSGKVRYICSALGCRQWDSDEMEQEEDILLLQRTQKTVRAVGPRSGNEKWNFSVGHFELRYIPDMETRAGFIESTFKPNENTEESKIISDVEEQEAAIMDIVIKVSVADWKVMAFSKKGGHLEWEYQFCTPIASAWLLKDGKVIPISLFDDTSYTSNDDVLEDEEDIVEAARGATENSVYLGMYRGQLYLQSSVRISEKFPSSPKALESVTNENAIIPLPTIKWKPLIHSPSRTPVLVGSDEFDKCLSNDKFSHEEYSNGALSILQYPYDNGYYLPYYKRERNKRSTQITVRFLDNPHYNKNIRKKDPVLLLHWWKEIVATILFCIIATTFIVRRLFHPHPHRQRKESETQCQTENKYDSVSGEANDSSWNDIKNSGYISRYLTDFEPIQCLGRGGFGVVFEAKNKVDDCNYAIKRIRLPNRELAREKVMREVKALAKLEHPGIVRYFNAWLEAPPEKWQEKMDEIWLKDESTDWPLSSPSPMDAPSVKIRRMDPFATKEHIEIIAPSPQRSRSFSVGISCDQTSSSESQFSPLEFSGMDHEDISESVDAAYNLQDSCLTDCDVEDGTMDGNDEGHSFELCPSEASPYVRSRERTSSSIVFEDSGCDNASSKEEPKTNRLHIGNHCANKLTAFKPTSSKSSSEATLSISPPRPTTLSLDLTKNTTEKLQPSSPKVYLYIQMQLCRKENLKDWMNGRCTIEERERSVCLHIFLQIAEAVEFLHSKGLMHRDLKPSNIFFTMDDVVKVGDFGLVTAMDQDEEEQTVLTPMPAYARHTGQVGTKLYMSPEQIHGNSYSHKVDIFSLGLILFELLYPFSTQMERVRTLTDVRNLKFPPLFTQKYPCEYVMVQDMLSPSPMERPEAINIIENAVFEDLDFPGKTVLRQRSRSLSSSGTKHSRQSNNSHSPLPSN

Structure (SMILES) | KINOMEscan: AXL (panel of 442 kinases) | % Inhibition PITSLRE [1] [%] | % Inhibiton, JAK3 domain2 [2] [%] | % Inhibition PAN3 [3] [%] | % Inhibition PEK ([4]; proteome HEL) [%] | % Inhibition PEK ([4]; proteome PC3) [%]
COc1cc(C(=O)N2CCC(N3CCN(C)CC3)CC2)ccc1Nc1ncc2c(n1)N(C)c1ccccc1C(=O)N2C [15 (LRRK2-IN-1)] | 100 |  |  |  |  | 
COc1cc(C(=O)N2CCC(N3CCN(C)CC3)CC2)ccc1Nc1ncc2c(n1)N(C1CCCC1)c1ccccc1C(=O)N2C [Compound 25, 11-cyclopentyl-2-((2-methoxy-4-(4-(4-methylpiperazin-1-yl)piperidine-1-carbonyl)phenyl)amino)-5-methyl-5H-benzo[e]pyrimido[5,4-b][1,4]diazepin-6(11H)-one] | 100 | 5.1 | 31.8 | -1.7 | 6.4 | 6.5
CCOc1cc(C(=O)N2CCC(N3CCN(C)CC3)CC2)ccc1Nc1ncc2c(n1)N(C1CCCC1)c1ccccc1C(=O)N2C [Compound 26] | 93 | 3.5 | ~53.9 | -17.8 | -23.3 | -4.9
